Test results from US20260000637A1, “METHOD OF IMPROVING SLEEP” (VANDA PHARMACEUTICALS INC., priority 2019, published 2026).
Values joined by “and” are separate entries in the source; they are usually repeats but may differ in a detail not shown here. Equal entries are not always repeated.

Key:
[1] = test system: individuals diagnosed with DSWPD and having at least one copy of the rs184039278 CRY1 allele; experiment: Sleep parameters after 20 mg tasimelteon before bedtime, by rs184039278 CRY1 genotype; type: in vivo, human
Protocol: In a study of genetic variations associated with sleep-wake patterns, Applicant found a significant association between the rs184039278 CRY1 allele and efficacy of treatment with tasimelteon. […] Both groups were treated with 20 mg of tasimelteon before bed.

[2] = test system: totally blind patients with Non-24; details: cited from earlier work
[3] = individual DSWPD patients, rs184039278 CRY1 G/T, 20 mg tasimelteon prior to bedtime

SMILES: CCC(=O)NC[C@@H]1C[C@H]1c1cccc2c1CCO2 [tasimelteon, Tasimelteon]
- total sleep time (TST), WT versus MT individuals (FIG. 1) ([1]; WT (no rs184039278 CRY1 allele) compared to MT (at least one copy), both 20 mg tasimelteon before bed): both lower and more variable than for MT individuals
- Total Sleep Time In First Two-Thirds Of Night [1, 3]: 308 min and 293.5 min
- percentage of total sleep time (sleep efficiency) [1, 3]: 96 and 91
- sleep parameters (LPS, sleep efficiency, REM sleep duration, TST, WASO) ([1]; individuals having at least one copy of the rs184039278 CRY1 allele, tasimelteon before bedtime): improvements in one or more sleep parameters
- efficacy on circadian timing system and sleep [2]: phase advance the circadian timing system (CTS) and to improve nighttime sleep and decrease daytime sleep
